Reference: patent publication US9439432B2, “Phenylisoxazoline-based compound having herbicidal activity and use thereof” (MOGHU RESEARCH CENTER LTD, priority 2011, dated 2016)

System: Echinochloa crusgalli
Test: Pre-emergence treatment, herbicidal efficacy on barnyardgrass
Assay type: in vivo
Settings: 62.5 g/ha, 4 weeks after spraying, scale 0 to 10
Protocol: (§1) A rectangular plastic pot having a surface area of 300 cm^2 was filled with sandy loam soil and mixed bed soil which were mixed at a ratio of 1:1, and then, barnyardrass (Echinochloa crusgalli), large crabgrass (Digitaria sanguinalis), blackgrass (Alopecurus myosuroides), and annual bluegrass (Poa annua), which are grass weeds, were seeded thereto. In a pot that was prepared as described above, seeds of corn, soybean, cotton, wheat, and rice were seeded. The pots were irrigated, and one day after, chemicals were sprayed thereto. The spraying was performed by using a track sprayer (R&D Sprayer, USA) equipped with a Teejet 8002 (Spraying Systems Co., USA) nozzle, and a spraying amount was adjusted at 300 L/ha. A spraying solution was prepared by dissolving test materials or references in acetone and adding the same amount of 0.2%(v/v) tween 20 aqueous solution thereto. Application rates were 500, 250, 125, and 62.5 g/ha. The pots were placed in a greenhouse in which during day, the temperature was maintained at a temperature of 25 to 30° C., and during night, the temperature was maintained at a temperature of 15 to 25° C., and the pots were periodically irrigated. Four weeks after the spraying the test materials or References, effects and phytotoxicity of the respective weeds and crops were evaluated in a scale of 0 to 10 (0: no effects, 10: complete death), and results thereof are shown in Table 4 below.

| Compound | Herbicidal efficacy, Echinochloa crusgalli |
| --- | --- |
| Cc1cccc(C2=NOC(C)(COCc3c(F)cccc3F)C2)c1 (stereo not drawn) [Reference F] | 0 |

Same assay, conditions: 125 g/ha, 4 weeks after spraying, scale 0 to 10

| Compound | Herbicidal efficacy, Echinochloa crusgalli |
| --- | --- |
| Cc1cccc(C2=NOC(C)(COCc3c(F)cccc3F)C2)c1 (stereo not drawn) [Reference F] | 1 |

Same assay, conditions: 250 g/ha, 4 weeks after spraying, scale 0 to 10

| Compound | Herbicidal efficacy, Echinochloa crusgalli |
| --- | --- |
| Cc1cccc(C2=NOC(C)(COCc3c(F)cccc3F)C2)c1 (stereo not drawn) [Reference F] | 5 |

Same assay, conditions: 500 g/ha, 4 weeks after spraying, scale 0 to 10 (0: no effects, 10: complete death)

| Compound | Herbicidal efficacy, Echinochloa crusgalli |
| --- | --- |
| Cc1cccc(C2=NOC(C)(COCc3c(F)cccc3F)C2)c1 (stereo not drawn) [Reference F] | 10 |

System: Soybean
Test: Pre-emergence treatment, phytotoxicity to soybean
Assay type: in vivo
Settings: 500 g/ha, 4 weeks after spraying, scale 0 to 10 (0: no effects, 10: complete death)
Protocol: as §1

| Compound | Phytotoxicity, Soybean |
| --- | --- |
| Cc1cccc(C2=NOC(C)(COCc3c(F)cccc3F)C2)c1 (stereo not drawn) [Reference F] | 0 |

System: Cotton
Test: Post-emergence treatment, phytotoxicity to cotton
Assay type: in vivo
Settings: post-emergence (about 3 leaf stage), 1,000 g/ha, 4 weeks after spraying, scale 0 to 10 (0: no effects, 10: complete death)
Protocol: as §1
(§2) Pots containing crops and weeds were prepared in the same manner as in Example 7, and then, in the second week in which crops and weeds entered into about 3 leaf stage, the test materials and the references were sprayed thereto in the same manner as described above. The rates were 1,000, 500, 250, and 125 g/ha. Four weeks after the spraying of the test materials or the references, herbicidal efficacy and phytotoxicity to the respective weeds and crops were evaluated in a scale of 0 to 10 (0: no effects, 10: complete death).

| Compound | Phytotoxicity, Cotton |
| --- | --- |
| Cc1cccc(C2=NOC(C)(COCc3c(F)cccc3F)C2)c1 (stereo not drawn) [Reference F] | 0 |

System: Corn
Test: Pre-emergence treatment, phytotoxicity to corn
Assay type: in vivo
Settings: 500 g/ha, 4 weeks after spraying, scale 0 to 10 (0: no effects, 10: complete death)
Protocol: as §1

| Compound | Phytotoxicity, Corn |
| --- | --- |
| Cc1cccc(C2=NOC(C)(COCc3c(F)cccc3F)C2)c1 (stereo not drawn) [Reference F] | 1 |

System: Soybean
Test: Post-emergence treatment, phytotoxicity to soybean
Assay type: in vivo
Settings: post-emergence (about 3 leaf stage), 1,000 g/ha, 4 weeks after spraying, scale 0 to 10 (0: no effects, 10: complete death)
Protocol: as §1, §2

| Compound | Phytotoxicity, Soybean |
| --- | --- |
| Cc1cccc(C2=NOC(C)(COCc3c(F)cccc3F)C2)c1 (stereo not drawn) [Reference F] | 0 |

System: Wheat
Test: Pre-emergence treatment, phytotoxicity to wheat
Assay type: in vivo
Settings: 500 g/ha, 4 weeks after spraying, scale 0 to 10 (0: no effects, 10: complete death)
Protocol: as §1

| Compound | Phytotoxicity, Wheat |
| --- | --- |
| Cc1cccc(C2=NOC(C)(COCc3c(F)cccc3F)C2)c1 (stereo not drawn) [Reference F] | 0 |

System: Echinochloa crusgalli
Test: Post-emergence treatment, herbicidal efficacy on barnyardgrass
Assay type: in vivo
Settings: post-emergence, 125 g/ha, 4 weeks after spraying, scale 0 to 10
Protocol: as §1, §2

| Compound | Herbicidal efficacy, Echinochloa crusgalli |
| --- | --- |
| Cc1cccc(C2=NOC(C)(COCc3c(F)cccc3F)C2)c1 (stereo not drawn) [Reference F] | 0 |

Same assay, conditions: post-emergence, 250 g/ha, 4 weeks after spraying, scale 0 to 10

| Compound | Herbicidal efficacy, Echinochloa crusgalli |
| --- | --- |
| Cc1cccc(C2=NOC(C)(COCc3c(F)cccc3F)C2)c1 (stereo not drawn) [Reference F] | 3 |

Same assay, conditions: post-emergence, 500 g/ha, 4 weeks after spraying, scale 0 to 10

| Compound | Herbicidal efficacy, Echinochloa crusgalli |
| --- | --- |
| Cc1cccc(C2=NOC(C)(COCc3c(F)cccc3F)C2)c1 (stereo not drawn) [Reference F] | 4 |

Same assay, conditions: post-emergence, 1,000 g/ha, 4 weeks after spraying, scale 0 to 10

| Compound | Herbicidal efficacy, Echinochloa crusgalli |
| --- | --- |
| Cc1cccc(C2=NOC(C)(COCc3c(F)cccc3F)C2)c1 (stereo not drawn) [Reference F] | 6 |

System: Digitaria sanguinalis
Test: Pre-emergence treatment, herbicidal efficacy on large crabgrass
Assay type: in vivo
Settings: 62.5 g/ha, 4 weeks after spraying, scale 0 to 10
Protocol: as §1

| Compound | Herbicidal efficacy, Digitaria sanguinalis |
| --- | --- |
| Cc1cccc(C2=NOC(C)(COCc3c(F)cccc3F)C2)c1 (stereo not drawn) [Reference F] | 1 |

Same assay, conditions: 125 g/ha, 4 weeks after spraying, scale 0 to 10

| Compound | Herbicidal efficacy, Digitaria sanguinalis |
| --- | --- |
| Cc1cccc(C2=NOC(C)(COCc3c(F)cccc3F)C2)c1 (stereo not drawn) [Reference F] | 2 |

Same assay, conditions: 250 g/ha, 4 weeks after spraying, scale 0 to 10

| Compound | Herbicidal efficacy, Digitaria sanguinalis |
| --- | --- |
| Cc1cccc(C2=NOC(C)(COCc3c(F)cccc3F)C2)c1 (stereo not drawn) [Reference F] | 6 |

Same assay, conditions: 500 g/ha, 4 weeks after spraying, scale 0 to 10

| Compound | Herbicidal efficacy, Digitaria sanguinalis |
| --- | --- |
| Cc1cccc(C2=NOC(C)(COCc3c(F)cccc3F)C2)c1 (stereo not drawn) [Reference F] | 10 |

System: Poa annua
Test: Post-emergence treatment, herbicidal efficacy on annual bluegrass
Assay type: in vivo
Settings: post-emergence, 125 g/ha, 4 weeks after spraying, scale 0 to 10
Protocol: as §1, §2

| Compound | Herbicidal efficacy, Poa annua |
| --- | --- |
| Cc1cccc(C2=NOC(C)(COCc3c(F)cccc3F)C2)c1 (stereo not drawn) [Reference F] | 0 |

Same assay, conditions: post-emergence, 250 g/ha, 4 weeks after spraying, scale 0 to 10

| Compound | Herbicidal efficacy, Poa annua |
| --- | --- |
| Cc1cccc(C2=NOC(C)(COCc3c(F)cccc3F)C2)c1 (stereo not drawn) [Reference F] | 3 |

Same assay, conditions: post-emergence, 500 g/ha, 4 weeks after spraying, scale 0 to 10

| Compound | Herbicidal efficacy, Poa annua |
| --- | --- |
| Cc1cccc(C2=NOC(C)(COCc3c(F)cccc3F)C2)c1 (stereo not drawn) [Reference F] | 5 |

Same assay, conditions: post-emergence, 1,000 g/ha, 4 weeks after spraying, scale 0 to 10

| Compound | Herbicidal efficacy, Poa annua |
| --- | --- |
| Cc1cccc(C2=NOC(C)(COCc3c(F)cccc3F)C2)c1 (stereo not drawn) [Reference F] | 6 |
